# Assay results: article PMC12406258, “Uncovering the Unusual Inhibition Mechanism of a Trypanosome Alternative Oxidase Inhibitor Displaying Broad-Spectrum Activity against African Animal Trypanosomes” (Journal of Medicinal Chemistry, 2025)
# Read-outs that look alike come from different tables or passages of the source.
# Legend:
# T. brucei = experiment: DNA configuration by fluorescence microscopy after DAPI staining; format: cell-based; conditions: 2 × EC50, by 24 h
# Text: To assess the cause of the apparent 24-h growth arrest visualized in Figure , we assessed the cellular DNA content by flow cytometry of fixed trypanosomes stained with the nucleic acid dye propidium iodide after RNase treatment. […] This indicates an inability to initiate new synthesis of nuclear DNA, while cells that already past that checkpoint were able to complete cell division. […] In T. brucei, the first phase of the cell cycle is the replication of the kinetoplast, before the subsequent duplication of the nucleus. Thus, at the start of the experiment (t = 0 h) an equal percentage of cells in the “compound 1” and “untreated control” cultures contained a single nucleus and kinetoplast (1N1K) or were in the initial stages of cell division with 2 kinetoplasts (1N2K) (Figure B). […] These observations strengthen our conclusion that treatment with 1 stops the initiation of a new cell division cycle, and specifically the replication of the kinetoplast that must precede nuclear DNA synthesis in trypanosomes. […]
# The configuration of nuclei and kinetoplast DNA of treated and untreated T. brucei was visualized using a Vectashield mounting medium with the dye 4,6-diamidino-2-phenylindole (DAPI) (Vector Lab. CA, USA), as described. […] At least 500 cells were scored per slide for the number of kinetoplasts (K) and nuclei (N) as 1N1K, 1N2K, 2N2K, or other.
# [1] = Microsomal stability, human liver microsomes; format: in vitro ADME; conditions: both sexes, pH 7.4, 0.5 mg/mL microsomes, NADPH
# Description: Pooled mixed gender human liver microsomes (HLMs) and Pooled CD1 mouse liver microsomes (female) were purchased from Tebubio. The NADPH regenerating system was purchased from Promega. All other reagents and solvents were of special or analytical grade and were commercially available. The assays were performed according to a reported protocol with small changes. […] The reactions were initiated by adding liver microsomes at a final concentration of 0.5 mg/mL in a total volume of 250 μL. […] The supernatants were analyzed with LC/MS for the amount of parent compound remaining, and the CLint and t 1/2 were determined.
# T. b. brucei SUR10 = experiment: microbe, parasite or virus in culture; format: cell-based; conditions: Trypanosoma brucei, read-out: SUR10 EC50
# T. congolense WT = experiment: Drug sensitivity assay, T. congolense WT bloodstream forms; format: cell-based; conditions: Trypanosoma congolense
# Description: The susceptibilities of trypanosomes to compound 1 were determined as previously described using the resazurin (Alamar Blue) assay. Briefly, this protocol involves preparing a 96-well cell culture plate with a 100 μL serially diluted test compound (200 μM top concentration) in HMI-9 + 10% FBS (24 wells per control drug or test compound, with the 24th well serving as drug-free). This is followed by adjusting the cell density of mid-log-phase trypanosome cultures to the required concentration of 2 × 10^5 cells/mL (2 × 10^4 cells/well). Then, 100 μL of the adjusted cell density/culture was added to all 24 wells in the plate, then incubating trypanosomes and test compound for 48 h followed by the addition of 20 μL filter-sterilized resazurin solution prepared by adding 25 mg resazurin sodium salt to 200 mL filter-sterilized PBS. This was followed by a further 24 h of incubation. All incubations were carried out at 37 °C with 5% CO2. […] Fluorescence was measured in the 96-well plates with a FLUOstar Optima (BMG Labtech, Durham, NC, USA) at wavelengths of 544 nm for excitation, 590 for emission, and a gain of 1250. EC50 values were calculated using GraphPad Prism 9.0 software via nonlinear regression with an equation for a sigmoidal dose–response curve with variable slope (GraphPad Software Inc., San Diego, CA, USA).
# [2] = system: T. b. brucei WT (s427) trypomastigotes; experiment: microbe, parasite or virus in culture; format: cell-based; conditions: Trypanosoma brucei
# Description: (§1) Other Trypanosoma species used in this study include T. evansi AntTat 3/3 (Wild-type); and T. equiperdum BoTat 1 (Bordeaux trypanozoon antigenic type 1) P (wild-type). All the trypanosomes were used only as bloodstream trypomastigotes and cultured in the standard Hirumi’s Modified Iscove’s medium #9 (HMI-9), supplemented with 10% heat-inactivated Fetal Bovine Serum (FBS), 14 μL/L β-mercaptoethanol, and 3.0 g sodium hydrogen carbonate per liter of medium (pH 7.4). Trypanosomes were cultured in vented flasks at 37 °C in a 5% CO2 atmosphere.
# (§2) Briefly, this protocol involves preparing a 96-well cell culture plate with a 100 μL serially diluted test compound (200 μM top concentration) in HMI-9 + 10% FBS (24 wells per control drug or test compound, with the 24th well serving as drug-free). This is followed by adjusting the cell density of mid-log-phase trypanosome cultures to the required concentration of 2 × 10^5 cells/mL (2 × 10^4 cells/well). […] All incubations were carried out at 37 °C with 5% CO2. […] EC50 values were calculated using GraphPad Prism 9.0 software via nonlinear regression with an equation for a sigmoidal dose–response curve with variable slope (GraphPad Software Inc., San Diego, CA, USA).
# T. evansi WT = experiment: Resazurin-based drug sensitivity assay, T. evansi WT; format: cell-based
# Description: as §1, §2
# T. b. brucei STIB795/luc = experiment: In vivo STIB795 mouse model of T. b. brucei infection; conditions: 5 mg/kg/day i.p. for 4 days
smiles,measurement,setting,value
"Cc1cc(O)ccc1C(=O)OCCCCCCCCCCCCCC[P+](c1ccccc1)(c1ccccc1)c1ccccn1.[Br-] [Compound 1, {14-[(4-Hydroxy-2-methylbenzoyl)-oxy]-tetradecyl}-diphenyl(pyridin-2-yl)-Phosphonium Bromide]",Percentage of 1N1K cells,T. brucei,100%
same,microsomal CLint at 1 μM,"[1]; read-out: CLint,met in human microsomes",216 ± 2.3 µL/min/mg
same,half-life at 1 μM,[1]; read-out: t1/2 in human microsomes,6.2 min
same,EC50,T. b. brucei SUR10,3.6 ± 0.9 nM
same,EC50,T. congolense WT,41 ± 7 nM
same,EC50,"[2]; read-out: T. b. brucei WT (+5 mM glycerol) EC50, incubated in the presence of 5 mM glycerol",1.4 ± 0.5 nM
same,EC50,"[2]; s427, no glycerol, n ≥ 4, read-out: T. b. brucei WT (no glycerol) EC50",3.1 ± 0.6 nM
same,EC50,T. evansi WT,1.2 ± 0.1 nM
same,In vivo efficacy (extension of lifespan),T. b. brucei STIB795/luc,no in vivo efficacy
